This assay deals with doubly labelled quadruplex F21T (F-21-T, FAM-d[GGGTTAGGGTTAGGGTTAGGG]-TAMRA). The experiment in a line: FRET-melting assay with F21T quadruplex. The format is binding. Conditions: F21T 0.2 μM, Caco.K buffer, 5 molar equivalents of TASQ; means of 3 experiments. The procedure:
The lyophilized DNA strands (purchased from Eurogentec, Seraing, Belgium) were firstly diluted at 500 μM in deionized water (18.2 MΩ·cm resistivity). The DNA batch was prepared in a Caco.K buffer, comprised of 10 mM lithium cacodylate buffer (pH 7.2) plus 10 mM KCl/90 mM LiCl.
The quadruplex structure was prepared by mixing 40 μL of the constitutive strand (500 μM) with 8 μL of a lithium cacodylate buffer solution (100 mM, pH 7.2), plus 8 μL of a KCl/LiCl solution (100 mM/900 mM) and 24 μL of water. The final DNA concentration was theoretically 250 μM. The actual concentration of the DNA was determined through a dilution to 1 μM theoretical concentration through UV spectral analysis at 260 nm (after 5 min at 90° C.) with the following molar extinction coefficient values: 268300 M^−1·cm^−1 (F21 T). The higher-order DNA structure was folded as follows: solutions were heated (90° C., 5 min), cooled on ice (7 h) and then stored at least overnight (4° C.). […] Final data were analyzed with Excel (Microsoft Corp.) and OriginPro® 9.1 (OriginLab Corp.). […]
The apparent affinity of each G4-ligands is quantified via fluorescence resonance energy transfer (FRET)-melting experiments. […]

For `NCCN(CC(=O)NCCNC(=O)CN1CCN(CC(=O)NCCNC(=O)CN(CCN)C(=O)Cn2cnc3c(=O)[nH]c(N)nc32)CCN(CC(=O)NCCNC(=O)CN(CCN)C(=O)Cn2cnc3c(=O)[nH]c(N)nc32)C(CNC(=O)CCCC[C@H]2SCC3NC(=O)NC32)CN(CC(=O)NCCNC(=O)CN(CCN)C(=O)Cn2cnc3c(=O)[nH]c(N)nc32)CC1)C(=O)Cn1cnc2c(=O)[nH]c(N)nc21` (some centres unmarked) [BioTASQ], the “Thermal stabilization ΔT1/2” value turned out to be 2.2 °C. On to `NCCN(CC(=O)NCCNC(=O)CN1CCN(CC(=O)NCCNC(=O)CN(CCN)C(=O)Cn2cnc3c(=O)[nH]c(N)nc32)CCN(CC(=O)NCCNC(=O)CN(CCN)C(=O)Cn2cnc3c(=O)[nH]c(N)nc32)CCN(CC(=O)NCCNC(=O)CN(CCN)C(=O)Cn2cnc3c(=O)[nH]c(N)nc32)CC1)C(=O)Cn1cnc2c(=O)[nH]c(N)nc21` [^PNADOTASQ], for which the “Thermal stabilization ΔT1/2” value worked out at 9.1 °C.

Source of the values: US12655158B2, “Biomimetic G-quartet compounds” (CENTRE NATIONAL DE LA RECHERCHE SCIENTIFIQUE, priority 2020, dated 2026).
